Values of other authors in patent publication US8529964B1, “Method and composition for suppression and control of citrus canker and other plant diseases” (priority 2010, dated 2013).

## O.O.O=C([O-])c1ccccc1.O=C([O-])c1ccccc1.[Cu+2] [copper benzoate dehydrate]
  water solubility (in words): slightly water soluble
